The subject of data set [1] is wild type HIV-1 NL43 virus.
In a further data set the test system is 92US657. Put plainly: Anti-viral effect in vitro (Table 1), 92US657. Format: cell-based, HIV. To be noted: 92US657, Clinical isolate, R5 (NSI).
The next data set deals with U1. The data set is described as follows: Anti-viral effect in vitro (Table 1), U1 infected cell. Format: cell-based, HIV.
The subject of data set [2] is HIV+ Patient 3 infected PBMCs. The data set is described as follows: Anti-viral effect in vitro (Table 1), HIV+ Patient 3 infected PBMCs. The format is cell-based.
The subject of data set [3] is HIV+ Patient 2 infected PBMCs. Put plainly: Anti-viral effect in vitro (Table 1), HIV+ Patient 2 infected PBMCs. Format: cell-based.
The next data set has as its system ACH-2. Put plainly: Anti-viral effect in vitro (Table 1), ACH-2 infected cell. The format is cell-based, HIV.
Data set [4] deals with laboratory adapted and clinical isolate viruses (HIV). The data set is described as follows: Inhibition of viral replication, several laboratory adapted and clinical isolate viruses. Format: cell-based. Particulars: mifepristone 40-1000 nM (17-430 ng/ml).
The next data set concerns 92US714. Put plainly: Anti-viral effect in vitro (Table 1), 92US714. The format is cell-based, HIV. To be noted: 92US714, Clinical isolate, R5 (NSI).
The subject of the next data set is HIV-1 NL43. The data set is described as follows: Anti-viral effect in vitro (Table 1), HIV-1 NL43. The format is cell-based. Particulars: HIV-1 NL43, Lab isolate.
The subject of a further data set is 91US054. Put plainly: Anti-viral effect in vitro (Table 1), 91US054. The format is cell-based, HIV. To be noted: 91US054, Clinical isolate, R5 (NSI).
The test system of the next data set is OM-10.1. The data set is described as follows: Anti-viral effect in vitro (Table 1), OM-10.1 infected cell. The format is cell-based, HIV.
The subject of data set [5] is HIV+ Patient 1 infected PBMCs. Put plainly: Anti-viral effect in vitro (Table 1), HIV+ Patient 1 infected PBMCs. The format is cell-based.
Another data set deals with 92US660. The data set is described as follows: Anti-viral effect in vitro (Table 1), 92US660. The format is cell-based, HIV. Particulars: 92US660, Clinical isolate, R5 (NSI).
A further data set concerns 91US056. The data set is described as follows: Anti-viral effect in vitro (Table 1), 91US056. Particulars: 91US056, Clinical isolate, R5 (NSI). Format: cell-based, HIV.
A further data set relates to LL58. The data set is described as follows: Anti-viral effect in vitro (Table 1), LL58 infected cell. The format is cell-based, HIV.
The subject of a further data set is HIV-1 89.6. Put plainly: Anti-viral effect in vitro (Table 1), HIV-1 89.6. The format is cell-based. Particulars: HIV-1 89.6, Lab isolate, R5X4.
Another data set relates to J1.1. The data set is described as follows: Anti-viral effect in vitro (Table 1), J1.1 infected cell. Format: cell-based, HIV.
A further data set deals with 92US727. Put plainly: Anti-viral effect in vitro (Table 1), 92US727. Particulars: 92US727, Clinical isolate, R5 (NSI). The format is cell-based, HIV.
In the next data set the test system is 92US723. The data set is described as follows: Anti-viral effect in vitro (Table 1), 92US723. The format is cell-based, HIV. To be noted: 92US723, Clinical isolate, R5X4.
Data set [6] deals with HIV+ Patient 4 infected PBMCs. Put plainly: Anti-viral effect in vitro (Table 1), HIV+ Patient 4 infected PBMCs. Format: cell-based.
The test system of the next data set is HIV-1 BaL. The data set is described as follows: Anti-viral effect in vitro (Table 1), HIV-1 BaL. Format: cell-based. Particulars: Lab isolate, R5 (NSI).
Another data set deals with HIV-1 Ada. The data set is described as follows: Anti-viral effect in vitro (Table 1), HIV-1 Ada. Format: cell-based. To be noted: Lab isolate, R5 (NSI).
For data set [7], the system named is alpha 1-acid glycoprotein (AAG). To be noted: in-vitro studies; cited from earlier work.
Data set [8] has as its target T1, human glucocorticoid receptor (Homo sapiens, UniProt P04150).
T1 sequence (P04150 1-777): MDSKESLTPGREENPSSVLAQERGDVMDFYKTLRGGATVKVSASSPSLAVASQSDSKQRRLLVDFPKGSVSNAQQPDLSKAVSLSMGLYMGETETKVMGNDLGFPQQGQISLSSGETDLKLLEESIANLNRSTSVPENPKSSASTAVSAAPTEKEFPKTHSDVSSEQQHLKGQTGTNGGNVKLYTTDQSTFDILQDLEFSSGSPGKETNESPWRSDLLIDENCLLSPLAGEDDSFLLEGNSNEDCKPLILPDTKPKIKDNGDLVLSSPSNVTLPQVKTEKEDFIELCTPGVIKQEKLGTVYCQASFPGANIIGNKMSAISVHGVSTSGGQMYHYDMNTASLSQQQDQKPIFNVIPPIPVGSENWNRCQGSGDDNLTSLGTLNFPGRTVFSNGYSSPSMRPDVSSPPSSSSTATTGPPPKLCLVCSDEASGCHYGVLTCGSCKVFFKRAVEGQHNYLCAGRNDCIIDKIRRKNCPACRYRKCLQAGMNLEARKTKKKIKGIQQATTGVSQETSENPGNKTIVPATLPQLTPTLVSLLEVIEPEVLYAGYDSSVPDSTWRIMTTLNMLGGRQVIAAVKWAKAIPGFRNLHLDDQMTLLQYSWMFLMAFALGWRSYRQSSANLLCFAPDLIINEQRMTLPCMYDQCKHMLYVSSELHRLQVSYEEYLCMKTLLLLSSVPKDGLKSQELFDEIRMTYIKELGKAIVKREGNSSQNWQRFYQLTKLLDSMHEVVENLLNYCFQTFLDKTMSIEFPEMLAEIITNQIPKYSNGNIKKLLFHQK
Particulars: cited from earlier work.

For a further data set, the target named is Progesterone (Homo sapiens, UniProt P06401). Particulars: comparative activity, Table 2; cited from earlier work.
The target in data set [9] is T1, human glucocorticoid receptor. Put plainly: Relative binding affinity to the human glucocorticoid receptor / anti-glucocorticoid activity. Particulars: comparative ratio of anti-glucocorticoid to anti-progesterone activity.
The conditions of data set [10]: Sarkar, 2002; cited from earlier work.

Like-named read-outs stand apart in the source and are kept apart here.

Progesterone, sequence (P06401 whole entry): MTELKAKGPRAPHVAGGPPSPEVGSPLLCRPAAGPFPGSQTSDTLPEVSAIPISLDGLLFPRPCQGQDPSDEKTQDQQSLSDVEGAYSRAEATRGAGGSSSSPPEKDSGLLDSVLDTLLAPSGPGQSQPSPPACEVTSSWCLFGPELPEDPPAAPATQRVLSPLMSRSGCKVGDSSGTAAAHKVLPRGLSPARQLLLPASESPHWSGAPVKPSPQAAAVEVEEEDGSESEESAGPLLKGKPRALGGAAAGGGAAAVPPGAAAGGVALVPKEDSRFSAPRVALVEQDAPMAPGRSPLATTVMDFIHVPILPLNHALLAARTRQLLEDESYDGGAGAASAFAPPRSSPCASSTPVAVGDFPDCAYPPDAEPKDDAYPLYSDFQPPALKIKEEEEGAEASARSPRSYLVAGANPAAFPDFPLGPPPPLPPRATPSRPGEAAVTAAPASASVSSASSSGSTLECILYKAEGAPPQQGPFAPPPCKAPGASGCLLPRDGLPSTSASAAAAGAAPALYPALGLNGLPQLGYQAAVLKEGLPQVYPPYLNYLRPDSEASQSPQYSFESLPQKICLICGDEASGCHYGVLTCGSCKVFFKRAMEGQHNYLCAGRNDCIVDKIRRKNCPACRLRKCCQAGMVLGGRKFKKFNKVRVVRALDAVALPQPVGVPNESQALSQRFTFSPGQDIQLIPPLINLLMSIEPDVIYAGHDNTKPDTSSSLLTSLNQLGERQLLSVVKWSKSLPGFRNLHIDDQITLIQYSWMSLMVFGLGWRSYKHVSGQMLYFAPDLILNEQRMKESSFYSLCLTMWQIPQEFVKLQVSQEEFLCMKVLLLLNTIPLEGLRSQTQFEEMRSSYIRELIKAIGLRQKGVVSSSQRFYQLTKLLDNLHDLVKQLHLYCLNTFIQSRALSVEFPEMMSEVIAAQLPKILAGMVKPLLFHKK

With “11β-(4dimethylaminophenyl)-17β-hydroxy-17-α-(propyl-lynyl)-4,9-dien-3-one [Mifepristone]”, the “mifepristone concentrations that consistently resulted in inhibition of HIV replication” value in [1] (FIG. 2) lay within 40 to 1000 nM; in data set [1] (FIG. 2, nM converted to ng/ml) it was 17 to 430 ng/mL. In data set [1] (U937 cells, different concentrations of mifepristone), the “Inhibition of viral replication by mifepristone” value is on record as “dose-dependent”. For the same molecule, in [1] (read-out: IC50 of mifepristone, inhibition of HIV replication in vitro, FIG. 2, U937 cells infected with wild type HIV-1 NL43), the IC50 is 8 nM. In addition, the “Maximum % Reduction in Viral Replication By Mifepristone in PBMCs” value (“Maximum % Reduction” below) in the data set with 92US657 is on record as above 80%; in the data set with U1, above 95%; in [2], above 90%; in [3], above 95%; in the data set on ACH-2, above 95%; with 92US714 it was above 90%. The “Maximum % Reduction” value in the data set with HIV-1 NL43 was above 90%; in the data set with 91US054 it was above 95%; in the data set with OM-10.1, above 95%; in data set [5], above 95%; in the data set on 92US660, above 90%; in the data set with 91US056, above 95%. Besides, the “Maximum % Reduction” value in the data set on LL58 was above 90%; with HIV-1 89.6, above 90%; with J1.1, above 95%; in the data set with 92US727, above 95%; in the data set with 92US723, above 90%; in data set [6], above 95%. The “Maximum % Reduction” value in the data set with HIV-1 BaL and in the data set on HIV-1 Ada was above 90% each time. For the same molecule, in [4], the “inhibition of viral replication” value is reported as above 90%. In data set [7], the “Mifepristone concentrations that saturate AAG” value is “exceeding 2.5 microM”.
As to `C[C@]12CCC(=O)C=C1CC[C@@H]1[C@@H]2[C@@H](O)C[C@@]2(C)[C@H]1CC[C@]2(O)C(=O)CO` [cortisol], the “relative binding affinities to the human glucocorticoid receptor” value in data set [8] is 23%.
As to `CC#C[C@]1(C)CCC2C3CCC4=CC(=O)CCC4=C3[C@@H](c3ccc(NC)cc3)C[C@@]21C` (some centres unmarked), the Anti-Progesterone at Progesterone is 21%. Moreover, the “relative binding affinities to the human glucocorticoid receptor” value in data set [8] is listed as 61%. For the same molecule, in data set [8] (comparative activity, Table 2), the Anti-Glucocorticoid is 61%. In [9], the A-G/A-P worked out at 290%. Also, the “Serum levels of the metabolite compared with Mifepristone” value in data set [10] is listed as “always exceeded those of Mifepristone”.

Source of the values: US20070259014A1, “Compositions for and Methods for Treating Hiv” (VGX PHARMACEUTICALS, INC., priority 2003, published 2007).
